Results taken from patent US20020114804A1, “A METHOD OF TREATING INFECTION OF SUTURES AND PROSTHETIC DEVICES” (priority 1996, published 2002).

Columns and labels:
Format in all cases: cell-based, human
[1] = tested on: monocytes; assay: Monocyte migration through Matrigel or Matrigel/tenascin coated filters; conditions: for Inhibition of chemoattractant-stimulated monocyte migration: Matrigel-coated filters, depending on chemoattractant, human tenascin 5 μg
Text: Mononuclear cells were isolated by centrifugation of heparinized human blood on Ficoll-Hypaque gradients as described (65, 66). The mononuclear cell fraction was resuspended in RMPI 1640 medium supplemented with 10% pooled human serum or autologous serum and used immediately for monocyte migration studies. For some experiments, monocytes were obtained by centrifugation of whole blood or of white blood cells concentrated from a unit of blood (leukopak), on Nycodenz gradients as described (39). More than 90% of the nucleated cells obtained by this Nycodenz method were monocytes, as assessed by their ability to phagocytose IgG-coated red blood cells.
(§1) Cultured monocytes were prepared by allowing 10^7 total mononuclear cells, suspended in 10 ml of RMPI 1640 medium supplemented with 10% pooled human serum (1640+HS), or 10% autologous serum (1640+AS), to adhere to Falcon T-150 tissue culture Petri dishes for 2 h at 37° C. Non-adherent cells were removed by washing, leaving an adherent cell population consisting of greater than 98% monocytes as measured by their capacity to phagocytose IgG coated sheep red blood cells. For migration studies, monocytes were maintained in culture for 24 h in RPMI 1640+HS or AS, and detached from the dishes by gentle pipetting of 10 ml of ice cold phosphate buffered saline (without Ca^2+ or Mg^2+) containing 1.0 mM EDTA. The cells recovered were resuspended in RPMI-1640+HS as described (65).
(§2) Cell culture inserts containing polyethylene terephthalate filters, 8-μm pore size (Becton-Dickinson), were overlaid with 0.1 ml of Matrigel (20-25 μg protein/filter) (Collaborative Research, Bedford, Mass.), and incubated at room temperature until they dried. These Matrigel-coated filters were washed with phosphate buffered saline containing 1.0 mM Mg^2+ and 1.0 mM Ca^2+ (PBS). 0.1 ml of a PBS solution (pH 7.2) containing the indicated amount of purified chick brain tenascin was added to some of the inserts. The filters were incubated at room temperature until they dried. These protein-coated filters were washed again with PBS and used within 12 h for cell migration studies. To prepare collagen I-coated inserts, filters were coated with rat tail collagen I (ICN Biochemicals, Costa, Mesa, Calif.) (400 μg/ml in PBS), by adding 0.1 ml of this solution to an insert and incubating the inserts at room temperature for 24 h. Some of these collagen I-coated filters were then incubated with tenascin as described above.
Monocytes: Cell culture inserts were placed in 16 mm wells containing 0.5 mls of RPMI-1640+HS or AS in the presence or absence of a chemoattractant. 0.5 ml of RPMI-1640+HS or AS serum containing between 2-10×10^5 mononuclear phagocytes was added to the upper chamber of the inserts and the inserts were placed in a humidified CO2 incubator at 37° C. After 24 h the medium in the lower chamber was recovered and its cell content assayed using either a Coulter counter or a hemocytometer. […] Cell counts reported are the average number of cells recovered from the medium in the lower compartment of chemotaxis chambers. Over 90% of the cells in the lower chamber were identified as monocytes based on their morphology, their capacity to phagocytose IgG coated sheep red cells, and their staining with fluorescein-conjugated anti α,β monoclonal antibody (Oncogene Sciences, Uniondale, N.Y.). Unless otherwise indicated, all values are the average of duplicate samples run in parallel in a representative experiment. Each experiment was repeated at least three times with similar results.

[2] = tested on: PMNs; assay: PMN migration through Matrigel or Matrigel/tenascin coated filters; conditions: for Inhibition of chemoattractant-stimulated PMN migration: Matrigel-coated filters, depending on chemoattractant, human tenascin 5 μg
Protocol: Polymorphonuclear leukocytes (PMN), were prepared as described (7) from heparinized human blood by sedimentation on Ficoll-Hypaque gradients. Contaminating red blood cells were removed by hypotonic lysis. The purity of PMN isolated by this method was >95% as determined by Wright-Giemsa staining.
as §2
PMN: 250 μl of PBS [supplemented with 5.5 mM glucose and 0.1% human serum albumin (HSA) (PBSG-HSA)] containing 1×10^6 PMNs was placed in the upper compartment of each insert. 250 μl of PBSG-HSA with or without chemoattractant, as indicated, was added to the bottom compartment. The inserts were incubated for about 4 h at 37° C. in a humidified atmosphere containing 95% air/5% CO2. […] The medium in the lower compartment was collected and its content of PMN determined using a Coulter Counter, as described in Example 1.

[3] = tested on: PMNs; assay: Exclusion of rhodamine-labeled polyethylene glycol (Rh-PEG) from zones of adhesion of PMNs; conditions: fMLP in combination with IL-8 or LTB4, fibrin
Protocol: Rh-PEG binds avidly to protein-coated surfaces, and can be detected easily by its fluorescence. Individual wells on glass microslides (Carlson Scientific, Peotone, Ill.) were coated with either fibrin, Matrigel or collagen IV in a manner similar to that for coating cell culture inserts except that 20 μl of the various solutions were used per well. 20 μl of PMNs (10^6 cells/ml in PBSG-HSA) were added to each well and PMNs were allowed to adhere for 15 mins at 37°. The cells were washed in PBS, fixed with 3.7% paraformaldehyde in PBS for 10 min, washed again with PBS, and further incubated with 10 kDa Rh-PEG at room temperature for 60 min. The preparation then was washed with PBS and immediately observed by phase and fluorescent microscopy at 400× magnification. Average values from three different experiments are reported as the percentage of PMNs that excluded Rh-PEG from zones of adherence between the cells and the underlying matrix.

[4] = tested on: PMNs; assay: PMN migration through filters coated with fibrinogen or fibronectin
Protocol: (§3) Becton-Dickinson cell culture inserts (pore sizes 3 or 8 μm: Franklin Lakes, N.J.) were overlaid with the following proteins:
Fibrinogen or fibronectin: 0.1 ml of PBS containing 100 μg/ml fibrinogen or fibronectin (New York Blood Center, New York, N.Y.), was placed into each insert (pore size 3 μm). Inserts were incubated at 37° C. for 60 min and washed with 250 μl of PBS. Filters coated with fibrinogen or fibronectin were diffusely fluorescent as visualized by epifluorescent microscopy when incubated with the corresponding antibody [fluorescein-labeled anti-fibrinogen, or anti-fibronectin monoclonal antibodies (Cappel, Malvern, Pa.)], while uncoated filters, or filters incubated with fluorescein-labeled antibody of the opposite specificity, were not.
PMNs were prepared from fresh heparinized blood from healthy adult volunteers by sedimentation on Ficoll-Hypaque gradients. Contaminating red blood cells were removed by hypotonic lysis, as described (7). The purity of PMN isolated by this method is >95% as determined by Wright-Giemsa staining (7). […] The medium in each lower compartment was collected and its content of PMNs was determined using either a Coulter Counter or a hemocytometer. […] Counts are expressed as the average number of PMNs that migrated into the lower compartment. […]

[5] = tested on: PMNs; assay: PMN migration through gels of Matrigel or collagen IV; conditions: added to the bottom chamber
Protocol: as §3
Collagen type IV and Matrigel matrices: 0.1 ml PBS containing 100 μg human placental collagen IV (Fluka Chemical Corp., Ronkonkoma, N.Y.), or 80 μg of reconstituted basement membrane proteins (Matrigel, Collaborative Research, Bedford, Mass.), was placed into each insert and allowed to gel at room temperature for 24 hrs.
PMNs were prepared from fresh heparinized blood from healthy adult volunteers by sedimentation on Ficoll-Hypaque gradients. Contaminating red blood cells were removed by hypotonic lysis, as described (7). The purity of PMN isolated by this method is >95% as determined by Wright-Giemsa staining (7). 10^6 PMNs in 250 μl of PBS supplemented with 5.5 mM glucose and 0.1% human serum albumin (PBSG-HSA), were placed in the upper compartment of each insert and incubated for 0-6 hrs at 37° C. in a humidified atmosphere containing 95% air/5% CO2. At the times and concentrations specified, chemoattractants/cytokines were added to the top or bottom compartment in 250 μl of PBSG-HSA. […] The medium in each lower compartment was collected and its content of PMNs was determined using either a Coulter Counter or a hemocytometer. […] Counts are expressed as the average number of PMNs that migrated into the lower compartment. […]

[6] = tested on: PMNs; assay: PMN migration through fibrin gels in Boyden-type chemotaxis chambers
Protocol: as §3
Fibrin gels: 1 Unit of thrombin (a gift from Dr. John Fenton, Albany Medical College, Albany, N.Y.), in 5 μl of PBS was added first to each insert. 0.1 ml phosphate buffered saline supplemented with Ca^2+ and Mg^2+ (PBS) containing 100 μg commercial grade fibrinogen (Calbiochem. Inc., San Diego, Calif.) or purified fibrinogen [a gift from Dr. Jeffery Weitz, (MacMaster University, Hamilton, On.)] was then placed into each 8.2 mm diameter insert on top of the thrombin. The mixture was incubated at 37° C. for 5 min to allow fibrin gel formation (determined by visual inspection). 1 Unit PPACK (Calbiochem Inc., San Diego, Calif.; 10^−5 M final concentration), in 100 μl medium was added to each insert to inhibit thrombin, and gels were washed with 250 μl PBS to remove inactivated thrombin. The fibrin gels formed were about 1 mm thick as measured under a dissecting microscope.
PMNs were prepared from fresh heparinized blood from healthy adult volunteers by sedimentation on Ficoll-Hypaque gradients. Contaminating red blood cells were removed by hypotonic lysis, as described (7). The purity of PMN isolated by this method is >95% as determined by Wright-Giemsa staining (7). 10^6 PMNs in 250 μl of PBS supplemented with 5.5 mM glucose and 0.1% human serum albumin (PBSG-HSA), were placed in the upper compartment of each insert and incubated for 0-6 hrs at 37° C. in a humidified atmosphere containing 95% air/5% CO2. At the times and concentrations specified, chemoattractants/cytokines were added to the top or bottom compartment in 250 μl of PBSG-HSA. At the end of the incubation, the chambers were shaken to dislodge PMNs from the lower surface of the inserts. The medium in each lower compartment was collected and its content of PMNs was determined using either a Coulter Counter or a hemocytometer. Both methods gave similar results. Counts are expressed as the average number of PMNs that migrated into the lower compartment. Unless otherwise indicated, all values reported are the average of six data points from at least 3 independent experiments.

[7] = tested on: PMNs; assay: PMN migration through fibrin gels with anti-integrin antibodies or synthetic peptides; conditions: PMNs incubated with antibody (2 μg/ml) or peptide (1 mg/ml); fMLP 10^−7M, 6 hrs
Protocol: Fibrin gels were formed on filters of cell culture inserts as described in Experimental Peocedures and fMLP (10^−7M) or LTB4 (10^−7M) was added to the medium in the lower chamber. FIG. 10A—10^6 PMNs were pre-incubated in medium containing antibodies against rat or human β1 integrins, or antibodies against the α5 subunit of human α5β1 integrin, or against the human β2 integrin complement receptor 3 (CR3), or against the human β2 integrin p150/95, or against human β3 integrins for 15 min at 4° C. PMNs were placed in the upper chamber of cell culture inserts in the same medium and the inserts were incubated for 6 hrs at 37° C., at which time the number of cells in the lower chamber was determined using a Coulter Counter. […] The mixture was added to the upper chamber of cell culture inserts and the inserts were incubated for 6 hrs at 37° C., at which time the number of cells in the lower chamber was counted as in FIG. 10A.
Fibrin gels: 1 Unit of thrombin (a gift from Dr. John Fenton, Albany Medical College, Albany, N.Y.), in 5 μl of PBS was added first to each insert. […] The mixture was incubated at 37° C. for 5 min to allow fibrin gel formation (determined by visual inspection). […] The fibrin gels formed were about 1 mm thick as measured under a dissecting microscope. […]

[8] = tested on: monocytes; assay: Monocyte migration through collagen I coated inserts; conditions: tenascin added to collagen I
Protocol: as §1
Cell culture inserts containing polyethylene terephthalate filters, 8-μm pore size (Becton-Dickinson), were overlaid with 0.1 ml of Matrigel (20-25 μg protein/filter) (Collaborative Research, Bedford, Mass.), and incubated at room temperature until they dried. These Matrigel-coated filters were washed with phosphate buffered saline containing 1.0 mM Mg^2+ and 1.0 mM Ca^2+ (PBS). 0.1 ml of a PBS solution (pH 7.2) containing the indicated amount of purified chick brain tenascin was added to some of the inserts. The filters were incubated at room temperature until they dried. […]

[9] = tested on: PMN or monocytes; assay: Adhesion of PMN or monocytes to tenascin-impregnated Matrigel
[10] = added in combination in bottom compartment, 6 hr

Compound: CSCC[C@H](NC=O)C(=O)N[C@@H](CC(C)C)C(=O)N[C@@H](Cc1ccccc1)C(=O)O [fMLP, formyl-methionyl-leucyl-phenylalanine]
- Cultured monocytes that migrated through Matrigel-coated inserts ([1]; Matrigel alone): ~15%
- Freshly isolated human monocytes that migrated through Matrigel-coated inserts ([1]; Matrigel alone): About 20%
- PMNs that migrated through Matrigel-coated inserts ([2]; Matrigel alone): ~10%
- PMNs forming zones of adhesion that excluded 10 kDa Rh-PEG [3]: about 50%
- PMN migration through filters with adsorbed fibrinogen or fibronectin [4]: promoted PMN migration
- PMN migration through gels of Matrigel or collagen IV [5]: stimulated PMN migration
- Effect of serum on PMN migration through fibrin gels in response to the chemoattractant ([6]; 20% human serum in upper and lower compartments): nor did the presence of serum promote
- Effect on PMN migration through fibrin gels in response to IL-8 [6, 10]: reduced
- Effect on PMN migration through fibrin gels in response to LTB4 [6, 10]: reduced
- PMN migration through fibrin gels (in words) ([6]; chemoattractant in lower compartment, zymosan-activated human plasma 2-10%): not

Compound: GRGDSP
- PMN migration through fibrin gels in response to fMLP [7]: migrated through fibrin gels

Compound: chick brain tenascin: tenascin purified from 14-day embryonic chick brains
- Reduction of TNF- or LTB4-stimulated monocyte migration through collagen I coated inserts [8]: at least 60%
- Inhibition of chemoattractant-stimulated monocyte migration [1]: 65-80%
- Amount causing half maximal inhibition of TNF-stimulated monocyte migration ([1]; amount added to Matrigel-coated insert, cultured monocytes, 24 h): about 0.75 μg
- Effect on monocyte migration through Matrigel in response to TNF, fMLP or LTB4 ([1]; tenascin added to Matrigel): significantly reduced
- Effect on monocytes that migrated in the absence of chemoattractant ([1]; tenascin added to Matrigel): no significant effect
- Inhibition of chemoattractant-stimulated PMN migration [2]: 65-80%
- Effect on PMN migration through Matrigel in response to TNF, fMLP or LTB4 ([2]; tenascin added to Matrigel): significantly reduced
- Effect on PMN that migrated across Matrigel in the absence of chemoattractant ([2]; tenascin added to Matrigel): further reduced
- Number of chemoattractant-stimulated PMN or monocytes adhered to tenascin-impregnated Matrigel over Matrigel alone [9]: no increase

Compound: human tenascin: tenascin obtained from cultured human glioma cells, from GIBCO-BRL
- Inhibition of chemoattractant-stimulated monocyte migration [1]: at least 50%
- Inhibition of chemoattractant-stimulated PMN migration [2]: at least 50%
